Experimental data taken from US20200331904A1, “3-AMINO-[1,2,4]-TRIAZOLE DERIVATIVES AND THEIR USE FOR CONTROLLING UNDESIRED PLANT GROWTH” (Bayer CropScience Aktiengesellschaft, priority 2017, published 2020).

Tests used:
Format in all cases: in vivo
Lolium rigidum = assay: Pre-emergence herbicidal efficacy, LOLRI; conditions: Table B1, application rate 320 g/ha, scored visually after about 3 weeks vs untreated controls
Method in brief: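 Seeds sown in pots and covered with soil. Greenhouse-grown about 3 weeks, then visually scored as % activity vs untreated controls (100% = dead, 0% = like control).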

Stellaria media = assay: Pre-emergence herbicidal efficacy, STEME; conditions: Table B1, application rate 320 g/ha, scored visually after about 3 weeks vs untreated controls
Method in brief: (§1)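 Visual percent activity relative to untreated plants (0% = like control, 100% = dead), scored about 3 weeks after treatment under greenhouse conditions.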

Echinochloa crus-galli = assay: Pre-emergence herbicidal efficacy, ECHCG; conditions: Table B1, application rate 320 g/ha, scored visually after about 3 weeks vs untreated controls
Method in brief: as §1

Amaranthus retroflexus = assay: Pre-emergence herbicidal efficacy, AMARE; conditions: Table B1, application rate 320 g/ha, scored visually after about 3 weeks vs untreated controls
Method in brief: as §1

Abutilon theophrasti = assay: Pre-emergence herbicidal efficacy, ABUTH; conditions: Table B1, application rate 320 g/ha, scored visually after about 3 weeks vs untreated controls
Method in brief: as §1

Viola tricolor [1] = assay: Pre-emergence herbicidal efficacy, VIOTR; conditions: Table B1, application rate 320 g/ha, scored visually after about 3 weeks vs untreated controls
Method in brief: as §1

Polygonum convolvulus = assay: Pre-emergence herbicidal efficacy, POLCO; conditions: Table B1, application rate 320 g/ha, scored visually after about 3 weeks vs untreated controls
Method in brief: as §1

Matricaria inodora = assay: Pre-emergence herbicidal efficacy, MATIN; conditions: Table B1, application rate 320 g/ha, scored visually after about 3 weeks vs untreated controls
Method in brief: as §1

Veronica persica [2] = assay: Pre-emergence herbicidal efficacy, VERPE; conditions: Table B1, application rate 320 g/ha, scored visually after about 3 weeks vs untreated controls
Method in brief: as §1

Veronica persica [3] = assay: Post-emergence herbicidal efficacy, VERPE; conditions: application rate 320 g/ha, rated visually after about 3 weeks (Table B7)
Source text: (§2) ABUTH: Abutilon theophrasti ALOMY: Alopecurus myosuroides AMARE: Amaranthus retroflexus AVEFA: Avena fatua CYPES: Cyperus esculentus ECHCG: Echinochloa crus-galli LOLMU: Lolium multiflorum MATIN: Matricaria inodora PHBPU: Ipomoea purpurea POLCO: Polygonum convolvulus SETVI: Setaria viridis STEME: Stellaria media VERPE: Veronica persica VTOTR: Viola tricolor
(§3) C.2 Post-Emergence Herbicidal Action and Crop Plant Compatibility
(§4) Seeds of monocotyledonous and dicotyledonous weeds and crop plants are placed in sandy loam in plastic or organic planting pots, covered with soil and cultivated in a greenhouse under controlled growth conditions. 2 to 3 weeks after sowing, the test plants are treated at the one-leaf stage. The compounds of the invention, formulated in the form of wettable powders (WP) or as emulsion concentrates (EC), are then sprayed onto the green parts of the plants as aqueous suspension or emulsion with addition of 0.5% additive at a water application rate of […] (converted). After the test plants had been kept in the greenhouse under optimum growth conditions for about 3 weeks, the activity of the preparations is rated visually in comparison to untreated controls. For example, 100% activity=the plants have died, 0% activity=like control plants.

Viola tricolor [4] = assay: Post-emergence herbicidal efficacy, VIOTR; conditions: application rate 320 g/ha, rated visually after about 3 weeks (Table B7)
Source text: as §2, §3, §4

Setaria viridis = assay: Pre-emergence herbicidal efficacy, SETVI; conditions: Table B1, application rate 320 g/ha, scored visually after about 3 weeks vs untreated controls
Method in brief: as §1

Row | Structure (SMILES) | Herbicidal efficacy against LOLRI (Lolium rigidum) | Herbicidal efficacy against STEME (Stellaria media) | Herbicidal efficacy against ECHCG (Echinochloa crus-galli) | Herbicidal efficacy against AMARE (Amaranthus retroflexus) | Herbicidal efficacy against ABUTH (Abutilon theophrasti) | Herbicidal efficacy against VIOTR (Viola tricolor [1]) | Herbicidal efficacy against POLCO (Polygonum convolvulus) | Herbicidal efficacy against MATIN (Matricaria inodora) | Herbicidal efficacy against VERPE (Veronica persica [2]) | Herbicidal efficacy against VERPE (Veronica persica [3]) | Herbicidal efficacy against VIOTR (Viola tricolor [4]) | Herbicidal efficacy against SETVI (Setaria viridis)
1 | CC(=O)N1CCn2nc(NC3c4cc(C)ccc4CC3C)nc2C1 (stereo not drawn) [Example I-165] | 100% | 100% | 100% | 100% | 100% | 100% | 100% | 100% | 100% | 90% | 80% | 100%
2 | CC(=O)N1CCn2nc(N[C@@H]3CCc4ccc(C)cc43)nc2C1 [Example I-173] | 100% | 100% | 100% | 100% | 100% | 100% | 100% | 100% | 100% | 90% | 80% | 100%
3 | Cc1ccc2c(c1)[C@H](Nc1nc3n(n1)CCN(S(C)(=O)=O)C3)[C@@H](C)C2 [Example I-190] | 100% | 100% | 100% | 100% | 100% | 100% | 100% | 100% | 100% | 80% | 80% | 100%
4 | Cc1ccc2c(c1)[C@H](Nc1nc3n(n1)CCN(S(C)(=O)=O)C3)CCC2 [Example I-198] | 100% | 100% | 90% | 100% | 100% | 100% | 100% | 100% | 100% | 90% | 80% | 90%
5 | Cc1ccc2c(c1)[C@H](Nc1nc3n(n1)CCN(S(=O)(=O)C1CC1)C3)CCC2 [Example I-200] | 100% | 100% | 100% | 100% | 100% | 100% | 100% | 100% | 100% | 100% | 80% | 100%
6 | Fc1cccc2c1CCC[C@H]2Nc1nc2n(n1)CCCCS2 [Example I-213] | 100% | 100% | 100% | 100% | 100% | 100% | 100% | 100% | 100% | 90% | 90% | 100%
7 | Cc1ccc2c(c1)C(Nc1nc3n(n1)CCC(=O)N3C)CC2 (stereo not drawn) [Example I-227] | 100% | 100% | 100% | 100% | 100% | 100% | 100% | 100% | 100% | 100% | 90% | 100%
